Reference: patent US20240148821A1, “PHARMACEUTICAL USE OF CYCLIC PEPTIDE COMPOUND” (CHUGAI SEIYAKU KABUSHIKI KAISHA, priority 2021, published 2024)
Numbered stars: 1 amine (or outer) side, 2 acyl side, 3 side chain; on linkers, the order of the positions; unused ones are H or OH. Bridge positions count the residues as written; N and C are the ends. Square brackets hold non-standard residues; d marks the D form. Peptide text beside a SMILES is read from it. * marks the point of attachment. hPhe(3-Cl-4-CF3) = N[C@@H](CCc1ccc(C(F)(F)F)c(Cl)c1)C(=O)O; hPhe(4-CF3) = N[C@@H](CCc1ccc(C(F)(F)F)cc1)C(=O)O; ACHC(1R,2R) = O=C([C@@H]1CCCC[C@H]1N[*:1])[*:2]; NMePhe(4-Cl) = CN[C@@H](Cc1ccc(Cl)cc1)C(=O)O; NMeGly(cPent) = CN[C@H](C(=O)O)C1CCCC1; NMeCha = CN[C@@H](CC1CCCCC1)C(=O)O; NMeChg = CN[C@H](C(=O)O)C1CCCCC1; NMeT = CN[C@H](C(=O)O)[C@@H](C)O; N(CH2CH2)2CF2 = FC1(F)CCN(*)CC1; NMeD = CN[C@@H](CC(=O)O)C(=O)O; NMeL = CN[C@@H](CC(C)C)C(=O)O; NMeV = CN[C@H](C(=O)O)C(C)C; d(β3hA) = C[C@@H](N)CC(=O)O; NMeS = CN[C@@H](CO)C(=O)O; dPip = O=C(O)[C@H]1CCCCN1; NMeA = CN[C@@H](C)C(=O)O; Piperidide = C1CCN(*)CC1; Thz = O=C(O)[C@@H]1CSCN1; dNMeA = CN[C@H](C)C(=O)O; Ac5c = NC1(C(=O)O)CCCC1; Aze = O=C(O)[C@@H]1CCN1; CH2CMe2OH = CC(C)(O)C*; Aib = CC(C)(N)C(=O)O; Cyclopropyl = C1CC1*; Bn = c1ccc(C*)cc1; Sar = CNCC(=O)O

target: protein-protein interaction between Kras and SOS1 (biotin-tagged human Kras loaded with GDP, His-tagged human SOS1) (Homo sapiens (Human), UniProt P01116, G12D); experiment: Protein-protein interaction inhibition between Kras and SOS1 (KrasG12D-SOS PPI) using AlphaScreen; format: biochemical; settings: AlphaScreen; biotin-tagged human Kras loaded with GDP, His-tagged human SOS1; read-out: KRAS G12D-SOS PPI IC50;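 further: kras produced in E. coli, Ni-coupled donor beads and streptavidin acceptor beads, excitation 680 nm with emission detected at 520–620 nm via singlet oxygen transfer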

Compound | IC50
CC[C@H](C)[C@@H]1NC(=O)[C@H](C)N(C)C(=O)C[C@@H](C)NC(=O)[C@H](C2CCCC2)N(C)C(=O)C2(CCCC2)NC(=O)[C@@H]2CCCN2C(=O)[C@H](CCc2ccc(C(F)(F)F)c(Cl)c2)NC(=O)[C@@H](C)N(C)C(=O)[C@H](C(C)C)N(C)C(=O)[C@@H]2CCN2C(=O)[C@H](C)N(C)C1=O [Compound 1066] (cyclo([Ac5c][NMeGly(cPent)][d(β3hA)][NMeA]I[NMeA][Aze][NMeV][dNMeA][hPhe(3-Cl-4-CF3)]P)) | 0.024 µM
CC[C@H](C)[C@@H]1NC(=O)[C@H](C)N(C)C(=O)C[C@@H](C)NC(=O)[C@H](CC(C)C)N(C)C(=O)C(C)(C)NC(=O)[C@H](CC(C)C)N(C)C(=O)[C@H](CCc2ccc(C(F)(F)F)cc2)NC(=O)CN(C)C(=O)[C@H]([C@@H](C)OCc2ccccc2)N(C)C(=O)CN(C)C(=O)CN(C)C1=O [Compound 1067] (cyclo([Aib][NMeL][d(β3hA)][NMeA]I[Sar][Sar][NMeT](Bn)[Sar][hPhe(4-CF3)][NMeL])) | 0.29 µM
CC[C@H](C)[C@@H]1NC(=O)[C@H](C(C)C)N(C)C(=O)C[C@@H](C)NC(=O)[C@H](C(C)C)N(C)C(=O)C2(CCCC2)NC(=O)[C@H](CC(C)C)N(C)C(=O)[C@H](CCc2ccc(C(F)(F)F)c(Cl)c2)NC(=O)CN(C)C(=O)[C@H](Cc2ccc(Cl)cc2)N(C)C(=O)CN(C)C(=O)CN(C)C1=O [Compound 1069] (cyclo([Ac5c][NMeV][d(β3hA)][NMeV]I[Sar][Sar][NMePhe(4-Cl)][Sar][hPhe(3-Cl-4-CF3)][NMeL])) | 0.017 µM
CC[C@H](C)[C@@H]1NC(=O)[C@H](CC(C)C)N(C)C(=O)C[C@@H](C(=O)N2CCCCC2)N(C)C(=O)[C@H](C(C)C)N(C)C(=O)[C@H](C(C)C)NC(=O)[C@H](CC(=O)N2CCC(F)(F)CC2)N(C)C(=O)[C@H](CCc2ccc(C(F)(F)F)c(Cl)c2)NC(=O)CN(C)C(=O)[C@H](CC2CCCCC2)N(C)C(=O)CN(C)C(=O)CN(C)C1=O [Compound 1078] ([NMeL]I[Sar][Sar][NMeCha][Sar][hPhe(3-Cl-4-CF3)][NMeD](N(CH2CH2)2CF2)V[NMeV][NMeD]-Piperidide; lactam N-11) | 0.19 µM
CC[C@H](C)[C@@H]1NC(=O)[C@H](CC(C)C)N(C)C(=O)C[C@@H](C(=O)N2CCCCC2)N(C)C(=O)[C@H](C2CCCCC2)N(C)C(=O)C2(CCCC2)NC(=O)[C@@H]2CSCN2C(=O)[C@H](CCc2ccc(C(F)(F)F)c(Cl)c2)NC(=O)CN(C)C(=O)[C@H](CC2CCCCC2)N(C)C(=O)CN(C)C(=O)CN(C)C1=O [Compound 1093] ([NMeL]I[Sar][Sar][NMeCha][Sar][hPhe(3-Cl-4-CF3)][Thz][Ac5c][NMeChg][NMeD]-Piperidide; lactam N-11) | 0.00073 µM
CC[C@H](C)[C@@H]1NC(=O)[C@H](CC(C)C)N(C)C(=O)C[C@@H](C)NC(=O)[C@H](C(C)C)N(C)C(=O)C2(CCCC2)NC(=O)[C@@H]2CCCN2C(=O)[C@H](CCc2ccc(C(F)(F)F)c(Cl)c2)NC(=O)CN(C)C(=O)[C@H](CC2CCCCC2)N(C)C(=O)[C@@H]2CCN2C(=O)[C@H](COC2CC2)N(C)C1=O [Compound 1102] (cyclo([Ac5c][NMeV][d(β3hA)][NMeL]I[NMeS](Cyclopropyl)[Aze][NMeCha][Sar][hPhe(3-Cl-4-CF3)]P)) | 0.16 µM
CC[C@H](C)[C@@H]1NC(=O)[C@H](C)N(C)C(=O)C[C@@H](C(=O)N2CCCCC2)N(C)C(=O)[C@H](C(C)C)N(C)C(=O)C2(CCCC2)NC(=O)[C@@H]2CCCN2C(=O)[C@H](CCc2ccc(C(F)(F)F)c(Cl)c2)NC(=O)[C@H]2CCCCN2C(=O)[C@H](CC2CCCCC2)N(C)C(=O)CN(C)C(=O)CN(C)C1=O [Compound 1118] ([NMeA]I[Sar][Sar][NMeCha][dPip][hPhe(3-Cl-4-CF3)]P[Ac5c][NMeV][NMeD]-Piperidide; lactam N-11) | 0.2 µM
CC[C@H](C)[C@@H]1NC(=O)[C@H](CC(C)C)N(C)C(=O)C[C@@H](C)NC(=O)[C@H](C(C)C)N(C)C(=O)C2(CCCC2)NC(=O)[C@@H]2CCCN2C(=O)[C@H](CCc2ccc(C(F)(F)F)c(Cl)c2)NC(=O)CN(C)C(=O)[C@H](CC2CCCCC2)N(C)C(=O)[C@@H]2CCN2C(=O)[C@H](COCC(C)(C)O)N(C)C1=O [Compound 1122] (cyclo([Ac5c][NMeV][d(β3hA)][NMeL]I[NMeS](CH2CMe2OH)[Aze][NMeCha][Sar][hPhe(3-Cl-4-CF3)]P)) | 0.067 µM
CC[C@H](C)[C@@H]1NC(=O)[C@H](C(C)C)NC(=O)[C@@H]2CCCC[C@H]2NC(=O)[C@H](CC(C)C)N(C)C(=O)C2(CCCC2)NC(=O)[C@H](CC(C)C)N(C)C(=O)[C@H](CCc2ccc(C(F)(F)F)cc2)NC(=O)CN(C)C(=O)[C@H](Cc2ccc(Cl)cc2)N(C)C(=O)CN(C)C(=O)CN(C)C1=O [Compound 1126] (cyclo([Ac5c][NMeL][ACHC(1R,2R)]VI[Sar][Sar][NMePhe(4-Cl)][Sar][hPhe(4-CF3)][NMeL])) | 0.25 µM
